Assay results from ChEMBL document CHEMBL4184197 (Bioorg Med Chem, 2018).

Tests used:
[1] = molecular target: T1, Retinoic acid receptor gamma (Mus musculus) (UniProt P18911); experiment: Transactivation of mouse Gal4-fused RARgamma-LBD expressed in COS-7 cells after 1 day by bright-Glo reagent based assay relative to control ATRA; assay type: cell-based
T1 sequence (whole entry): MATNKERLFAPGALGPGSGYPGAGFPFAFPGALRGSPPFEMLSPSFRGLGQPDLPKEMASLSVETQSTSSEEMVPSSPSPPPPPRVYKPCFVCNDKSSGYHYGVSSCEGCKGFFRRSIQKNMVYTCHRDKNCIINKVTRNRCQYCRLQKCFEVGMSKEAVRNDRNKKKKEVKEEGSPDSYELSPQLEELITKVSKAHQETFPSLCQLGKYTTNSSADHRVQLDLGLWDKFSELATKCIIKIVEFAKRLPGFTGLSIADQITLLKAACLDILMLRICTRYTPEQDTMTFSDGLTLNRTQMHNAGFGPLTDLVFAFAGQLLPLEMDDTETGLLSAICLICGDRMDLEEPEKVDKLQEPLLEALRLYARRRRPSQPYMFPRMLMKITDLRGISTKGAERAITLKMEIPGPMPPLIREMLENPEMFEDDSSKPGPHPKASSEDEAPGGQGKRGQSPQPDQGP

[2] = molecular target: T2, Retinoic acid receptor beta (Mus musculus) (UniProt P22605); experiment: Transactivation of mouse Gal4-fused RARbeta-LBD expressed in COS-7 cells after 1 day by bright-Glo reagent based assay relative to control ATRA; assay type: cell-based
T2 sequence (whole entry): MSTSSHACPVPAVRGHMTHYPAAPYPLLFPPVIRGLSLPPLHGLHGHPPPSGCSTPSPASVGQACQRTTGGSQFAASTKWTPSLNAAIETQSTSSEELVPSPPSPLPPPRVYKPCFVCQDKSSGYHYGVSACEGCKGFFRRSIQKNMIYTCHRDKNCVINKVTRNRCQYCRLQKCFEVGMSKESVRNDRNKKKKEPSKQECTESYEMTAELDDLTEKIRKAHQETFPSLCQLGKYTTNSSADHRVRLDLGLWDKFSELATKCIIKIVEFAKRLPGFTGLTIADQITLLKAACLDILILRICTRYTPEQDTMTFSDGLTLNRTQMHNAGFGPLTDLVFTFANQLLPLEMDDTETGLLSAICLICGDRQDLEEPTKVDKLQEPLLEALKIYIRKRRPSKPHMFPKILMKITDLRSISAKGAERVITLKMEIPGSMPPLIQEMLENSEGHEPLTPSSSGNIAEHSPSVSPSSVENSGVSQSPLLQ

[3] = molecular target: T3, Retinoic acid receptor alpha (Mus musculus) (UniProt P11416); experiment: Transactivation of mouse Gal4-fused RARalpha-LBD expressed in COS-7 cells after 1 day by bright-Glo reagent based assay relative to control ATRA; assay type: cell-based
T3 sequence (whole entry): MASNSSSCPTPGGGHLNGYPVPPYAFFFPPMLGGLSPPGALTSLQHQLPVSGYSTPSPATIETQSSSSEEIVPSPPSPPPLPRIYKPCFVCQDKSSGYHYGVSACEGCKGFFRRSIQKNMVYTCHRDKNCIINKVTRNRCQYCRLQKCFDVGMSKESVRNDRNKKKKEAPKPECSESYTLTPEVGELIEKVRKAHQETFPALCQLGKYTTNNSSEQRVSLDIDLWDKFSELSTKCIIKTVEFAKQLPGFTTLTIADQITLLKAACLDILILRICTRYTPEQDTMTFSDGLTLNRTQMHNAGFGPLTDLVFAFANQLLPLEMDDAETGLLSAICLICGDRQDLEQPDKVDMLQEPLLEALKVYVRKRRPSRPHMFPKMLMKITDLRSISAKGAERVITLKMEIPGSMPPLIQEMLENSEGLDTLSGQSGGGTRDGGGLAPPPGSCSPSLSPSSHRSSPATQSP

[4] = Oral bioavailability in Sprague-Dawley rat at 10 mg/kg by LC-MS/MS analysis; assay type: ADME, organism-based; settings: in vivo
Rattus norvegicus = experiment: AUC in Sprague-Dawley rat at 10 mg/kg, po by LC-MS/MS analysis; assay type: ADME, organism-based; settings: in vivo

SMILES	Ratio EC50 [1]	Ratio EC50 [2]	Ratio EC50 [3]	bioavailability [4]	AUC (Rattus norvegicus)
CC(C)(C)Oc1cc(C(=O)Nc2ccc(C(=O)O)cc2)cc(Cl)c1OC(C)(C)C	162	38	0.9	–	–
COc1c(Cl)cc(C(=O)Nc2ccc(C(=O)O)c(F)c2)cc1OC(C)C	–	–	6.7	–	–
CCOc1c(Br)cc(C(=O)Nc2ccc(C(=O)O)cc2)cc1Br	–	–	5	–	–
CCOc1c(Cl)cc(C(=O)Nc2ccc(C(=O)O)cc2)cc1Cl	–	–	–	> 35%	–
COc1c(Cl)cc(C(=O)Nc2ccc(C(=O)O)c(C)c2)cc1OC(C)C	–	–	4.7	–	–
O=C(O)c1ccc(NC(=O)c2cc(Cl)c(OC3CCC3)c(OC3CCC3)c2)cc1	1060	53	2.4	–	–
Cc1cc(NC(=O)c2cc(Cl)c(OC(C)C)c(OC(C)C)c2)ccc1C(=O)O	–	–	0.97	–	–
CCOc1cc(C(=O)Nc2ccc(C(=O)O)cc2)cc(Cl)c1OC(C)C	1200	7.1	2.1	–	–
CCOc1c(Cl)cc(C(=O)Nc2ccc(C(=O)O)c(C)c2)cc1OCC1CC1	–	–	2.6	–	–
COc1c(Cl)cc(C(=O)Nc2ccc(C(=O)O)cc2)cc1Cl	5850	9520	30	–	–
CC1(C)CCC(C)(C)c2c1cc(C(=O)Nc1cc(F)c(C(=O)O)c(F)c1)c(O)c2Cl [NRX195183]	9840	1560	11	–	–
CC(C)Oc1cc(C(=O)Nc2ccc(C(=O)O)c(F)c2)cc(Cl)c1OC(C)C	–	–	2.7	–	–
O=C(O)c1ccc(NC(=O)c2cc(Cl)c(O)c(Cl)c2)cc1	5000	642	92	–	–
CCOc1c(Cl)cc(C(=O)Nc2ccc(C(=O)O)c(O)c2)cc1Cl	–	–	33	–	–
CCOc1c(OC(C)C)cc(C(=O)Nc2ccc(C(=O)O)cc2)cc1OC(C)C	–	–	–	–	783782 ng·min/mL
CCOc1cc(C(=O)Nc2ccc(C(=O)O)cc2)cc(OC(C)C)c1OCC	960	2450	29	–	–
CCOc1c(Cl)cc(C(=O)Nc2ccc(C(=O)O)c(F)c2)cc1OC(C)C	–	–	1.1	–	–

SMILES	Ratio EC50 [1]	Ratio EC50 [2]	Ratio EC50 [3]	bioavailability [4]	AUC (Rattus norvegicus)
CC(C)Oc1c(Cl)cc(C(=O)Nc2ccc(C(=O)O)cc2)cc1Cl	823	1420	7	–	–
CCOc1c(Cl)cc(C(=O)Nc2ccc(C(=O)O)c(C(F)(F)F)c2)cc1Cl	–	–	1.7	–	–
CCOc1c(C(C)(C)C)cc(C(=O)Nc2ccc(C(=O)O)cc2)cc1C(C)(C)C	–	–	0.2	–	–
CCOc1c(Cl)cc(C(=O)Nc2ccc(C(=O)O)cc2)cc1OC1CCC1	–	–	1	–	–
O=C(O)c1ccc(NC(=O)c2cc(Cl)c(OC3CCCC3)c(OC3CCCC3)c2)cc1	571	55	1.7	–	–
CCOc1c(Cl)cc(NC(=O)c2ccc(C(=O)O)cc2)cc1Cl	> 108000	355	30	–	–
CCCOc1c(Cl)cc(C(=O)Nc2ccc(C(=O)O)cc2)cc1Cl	1200	139	15	–	–
CC(C)Oc1cc(C(=O)Nc2ccc(C(=O)O)cc2)cc(OC(C)C)c1OC(C)C	225	2600	27	–	–
Cc1cc(NC(=O)c2cc(Cl)c(OC(C)(C)C)c(OC(C)(C)C)c2)ccc1C(=O)O	–	–	0.64	–	–
CCOc1c(OC2CCCC2)cc(C(=O)Nc2ccc(C(=O)O)cc2)cc1OC1CCCC1	550	4200	29	–	–
CCOc1c(Cl)cc(C(=O)Nc2ccc(C(=O)O)c(F)c2)cc1Cl	–	–	25	–	–
CCOc1c(Cl)cc(C(=O)Nc2ccc(C(=O)O)c(Cl)c2)cc1Cl	–	–	151	–	–
CCOc1cc(C(=O)Nc2ccc(C(=O)O)c(C)c2)cc(Cl)c1OC(C)C	–	–	7	–	–
CCOc1c(Cl)cc(C(=O)Nc2ccc(C(=O)O)c(C)c2)cc1OC	–	–	33	–	–
CCOc1cc(C(=O)Nc2ccc(C(=O)O)cc2)cc(OCC)c1OCC	5880	64100	368 to 370	–	–
CCCCOc1c(Cl)cc(C(=O)Nc2ccc(C(=O)O)cc2)cc1Cl	1480	717	84	–	–
